{"source": "patent US9919001B2", "about": "“Drug carrier having L-DNA nanocage structure” (Korea Institute of Science and Technology, priority 2013, dated 2018)", "tested_on": "MCF-7/ADR cells", "test": "MTT cell viability assay (small molecule drug delivery)", "assay_type": "cell-based", "conditions": "average of triplicate", "protocol": "For DOX intercalation into the Cy5-labeled Td, DOX (1 mM) was mixed with the fluorescent DNA tetrahedron (10 μM) for 1 h and then run through NAP10 (G25-DNA grade column, GE Healthcare, USA) to remove the free DOX remaining in solution. The number of intercalated DOX molecules per DNA tetrahedron was calculated using the extinction coefficient of Cy5 at 633 nm (ϵ=230400) and that of DOX at 480 nm (ϵ=10410), respectively.\nDrug-sensitive MCF-7 cells and drug-resistant MCF-7/ADR cells were used for cell viability assays. Cytotoxicity of Td was estimated using an MTT assay. Briefly, 8×10^3 mammalian cells were seeded with media (100 μL) in 96-well plates and cultured overnight to reach ˜80% confluency. The cells were then incubated in the fresh media containing Td at 37° C. for 6 h in the CO2 chamber. […] Then, thiazolyl blue tetrazolium bromide (MTT, TACS, Germany) solution (10 μL) was added to each well, followed by 4 h incubation at 37° C. Next, cells were lysed with 200 μL of dimethyl sulfoxide (DMSO, Sigma-Aldrich, USA). After overnight incubation at room temperature, the absorbance was measured at 580 nm using a microplate reader (SpectraMaxPlus™, Molecular Devices, USA)."}
{"smiles": "COc1cccc2c1C(=O)c1c(O)c3c(c(O)c1C2=O)C[C@@](O)(C(=O)CO)C[C@@H]3O[C@H]1C[C@H](N)[C@H](O)[C@H](C)O1", "note": "[Free-DOX, doxorubicin]", "values": [{"measurement": "Cell viability assay (%)", "setting": "24 h", "result": 98.9, "unit": "%"}, {"measurement": "Cell viability assay (%)", "setting": "48 h", "result": 93.6, "unit": "%"}, {"measurement": "Cell viability assay (%)", "setting": "72 h", "result": 89.2, "unit": "%"}]}
